Results as given in paper PMC7617869, “Molecular glues that inhibit deubiquitylase activity and inflammatory signaling” (Nature Structural & Molecular Biology, 2025).
Values joined by “and” are separate entries in the source; they are usually repeats but may differ in a detail not shown here. Equal values may be shown once.

Tests used:
Assay type in all cases: cell-based, human
[1] = test system: CXCL10 secretion in SSc PBMCs; assay: SSc PBMC CXCL10 ELISA, unstimulated
Description: PBMCs in vitro experiments
Peripheral blood mononuclear cells (PBMCs) from healthy and SSc donors were separated using density gradient method (Leucosep™, Greiner Bio-One International) from EDTA anticoagulated peripheral blood; isolated cells were washed twice by PBS. PBMCs were then incubated in RPMI1640 […]
For healthy PBMCs, cells were stimulated with 20 ng/mL of IFN (+/- compounds or DMSO). For SSc PBMCs, cells were in basal conditions with no additional IFN stimulation. Cells were centrifuged at 300 g for 10 minutes. Supernatant was removed and subjected to R&D Systems DY266 Human CXCL10/IP-10 DuoSet ELISA (Biotechne) in duplicates, according to manufacturer’s guidance. Concentration of CXCL10 was determined according to a 4-parameter

[2] = test system: IFNAR1 cell surface levels in MCF10A BRCC45 R137A cells; assay: MCF10A BRCC45 R137A IFNAR1 cell surface levels (FACS); conditions: BRCC45 KO + BRCC45 R137A; IFN + compound; No IFN about 100
Description: (§1) To study the direct effect of BRISC DUB inhibitors, IFNAR1 surface levels were measured using flow cytometry (FACS) analysis. For this purpose, MCF10A WT and MCF10A BRCC45 KO cells expressing […]
(§2) BRCC45 WT or BRCC45 R137A were used. […]
(§3) minutes prior to the addition of 50 ng/mL of hIFN-Iα for various time points (45 minutes and 90 minutes).
(§4) After IFN treatment, cells were dissociated from plate using cell dissociation Buffer (ThermoFisher Scientific, #13150016) and were stained with LIVE/DEAD™ Fixable Violet Dead Cell Stain Kit, for 405 nm excitation (ThermoFisher Scientific, #L34963) for 30 minutes, as per the kit protocol. The cells were then washed using FACS buffer (DPBS, 1% BSA, 2 mM EDTA, 0.09% sodium azide) and transferred to 96-well round bottom plates. Resuspended cells were divided into three repeats for each sample, each was surface stained for 1 hour at 4 °C with: 1. Human IFN-alpha/beta R1 Antibody (R&D systems, #MAB245), 2. Mouse IgG1 Isotype Control (R&D systems, #MAB002), 3. FACS buffer (control cells).
(§5) Following incubation, cells were washed once with FACS buffer and were labelled for 30 minutes at 4 °C with either Biotin-SP-conjugated AffiniPure Donkey Anti-Mouse IgG (H+L) (Jackson Immunoresearch Laboratories) for samples 1 and 2 or with FACS buffer for sample 3. Cells were washed twice with FACS buffer and were labelled for 15 minutes at 4 °C with either R-Phycoerythrin-conjugated Streptavidin (Jackson Immunoresearch Laboratories) for samples 1 and 2 or with FACS buffer for sample 3. Cells were washed 3 times with FACS buffer and were analysed by FACS (MACSQuant, Miltenyi Biotec). For each sample from group 1 the Geo mean fluorescence intensity (MFI) of its isotype sample was reduced. IFNAR1 cell surface percentage was calculated by 100*(MFI

[3] = test system: IFNAR1 cell surface levels in MCF10A BRCC45 WT cells; assay: MCF10A BRCC45 WT IFNAR1 cell surface levels (FACS); conditions: BRCC45 KO + BRCC45 WT; IFN + compound; No IFN about 100
Description: as §1, §2, §3, §4, §5

Cn1cc(NC(=O)c2c(Cl)cccc2Cl)c(C(=O)NC2CCN(C(=O)c3c(Cl)cccc3Cl)CC2)n1 [AP-5-145]
CXCL10, SSc donor PBMCs (Fig. 6d) ([1]; SSc donor ID 68): 80
CXCL10, SSc donor PBMCs (Fig. 6d) ([1]; SSc donor ID 78): 67.741
CXCL10, SSc donor PBMCs (Fig. 6d) ([1]; SSc donor ID 79): 66.2158
CXCL10, SSc donor PBMCs (Fig. 6d) ([1]; SSc donor ID 142): 86.6322
CXCL10, SSc donor PBMCs (Fig. 6d) ([1]; SSc donor ID 205): 91.7468
CXCL10, SSc donor PBMCs (Fig. 6d) ([1]; SSc donor ID 219): 90.6622
CXCL10, SSc donor PBMCs (Fig. 6d) ([1]; SSc donor ID 244): 57.7808
IFNAR1 cell surface levels (Fig. 5g) [2]: 55.396 and 54.5623 and 54.7013
IFNAR1 cell surface levels (Fig. 5g) [3]: 55.2385 and 54.5047 and 53.242
